From PubChem BioAssay AID1033 (Sanford-Burnham Center for Chemical Genomics, 2008)
Activity calls are given as the source filed them. The rule behind the calls is not given here.

These molecules were tested against Chaperone protein DnaK (Escherichia coli (strain K12)) (UniProt P0A6Y8) (assay: binders of DnaK substrate-binding domain, biophysical, NMR, chaperone (AID 1033)). Details: Purified DnaK SBD, NMR ligand binding.
Sequence of Chaperone protein DnaK (Escherichia coli (strain K12)) (P0A6Y8 whole entry, looked up, the tested form may be a part): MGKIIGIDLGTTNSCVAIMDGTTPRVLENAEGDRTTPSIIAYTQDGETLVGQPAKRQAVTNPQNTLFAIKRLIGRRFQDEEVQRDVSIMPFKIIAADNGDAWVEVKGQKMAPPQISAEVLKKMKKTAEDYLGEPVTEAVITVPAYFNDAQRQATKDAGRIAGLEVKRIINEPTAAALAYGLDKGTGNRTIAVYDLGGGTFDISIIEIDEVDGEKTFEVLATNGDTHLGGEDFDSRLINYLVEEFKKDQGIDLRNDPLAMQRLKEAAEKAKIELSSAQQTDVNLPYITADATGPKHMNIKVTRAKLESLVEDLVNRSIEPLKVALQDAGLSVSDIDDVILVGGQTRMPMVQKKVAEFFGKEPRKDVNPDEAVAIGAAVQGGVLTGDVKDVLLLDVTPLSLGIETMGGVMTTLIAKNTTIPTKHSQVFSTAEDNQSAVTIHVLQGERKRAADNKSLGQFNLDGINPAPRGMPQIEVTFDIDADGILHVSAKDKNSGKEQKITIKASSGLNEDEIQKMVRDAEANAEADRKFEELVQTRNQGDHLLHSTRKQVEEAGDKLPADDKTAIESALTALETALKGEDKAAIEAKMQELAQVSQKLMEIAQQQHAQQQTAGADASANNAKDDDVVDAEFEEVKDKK

SMILES | Kd
CC(=O)O[C@H]1C[C@@H](OC(C)=O)C(C)(C)C2C[C@@H](OC(C)=O)[C@@]3(C)C4=CC(=O)O[C@@H](c5ccoc5)[C@]4(C)CCC3[C@]21C (stereo partly specified) | > 4 mM (inactive)
COC(=O)c1c(OC)cc2c(c1C)Oc1c(Cl)c(O)c(Cl)c(C)c1C(=O)O2 | > 4 mM (inactive)
COc1cc(O)cc(/C=C/c2ccccc2)c1 | > 4 mM (inactive)
O=S(=O)(N1CCCCC1)n1nnc2ccccc21 | inactive
CC(=O)N1C(=S)NC(=O)/C1=C\c1cccnc1 | > 4 mM (inactive)
O=C(/C=C/c1ccccc1)c1ccc(O)cc1 | > 4 mM (inactive)
CC(=O)Nc1cccc(Cn2cccn2)c1 | > 4 mM (inactive)
COC(=O)c1ccc2snnc2c1 | > 4 mM (inactive)
CC(=O)Nc1c(C)n(C)n(-c2ccccc2)c1=O | > 4 mM (inactive)
O=C1CCC(C(=O)NCc2cccnc2)N1 (stereo unspecified) | > 4 mM (inactive)
O=C(c1ccco1)N1CCNCC1 | > 4 mM (inactive)
O=C(C1CCCCC1)N1CCN(c2ccccc2F)CC1 | > 4 mM (inactive)
Nc1ncnc(NC2CCS(=O)(=O)C2)c1[N+](=O)[O-] (stereo unspecified) | > 4 mM (inactive)
COc1cc(O)c(C(C)=O)c(OC)c1 | > 4 mM (inactive)
Cn1nccc1N | > 4 mM (inactive)
CC1=NNC(=O)C1CCc1ccncc1 (stereo unspecified) | > 4 mM (inactive)
O=C1CCCN1c1ccc(S(=O)O)cc1 | > 4 mM (inactive)
CS(=O)(=O)Nc1ccccc1C(=O)c1ccccc1 | > 4 mM (inactive)
c1ccc(-c2nsc(N3CCCNCC3)n2)cc1 | > 4 mM (inactive)
CC(NC(=O)c1ccco1)C1CCCO1 (stereo unspecified) | > 4 mM (inactive)
N#Cc1nc(-c2ccccc2Cl)oc1N1CCOCC1 | > 4 mM (inactive)
O=C(O)CN1CCNCC1 | > 4 mM (inactive)
COc1ccc2c(C)cc(=O)oc2c1 | > 4 mM (inactive)
CCn1nccc1C(=O)Nc1ccc(Cl)cc1Cl | > 4 mM (inactive)

SMILES | Kd
CN1CCN(CC(O)c2ccccc2)CC1 (stereo unspecified) | > 4 mM (inactive)
OCc1cc(F)cc2c1OCOC2 | > 4 mM (inactive)
CN(C)c1ccc(N2C(=O)CCC2=O)cc1 | > 4 mM (inactive)
O=c1cc(CO)oc(CN2CCCCC2)c1O | > 4 mM (inactive)
[O-][n+]1cc(O)c(CN2CCOCC2)c2ccccc21 | > 4 mM (inactive)
Cc1cc(NC(=O)c2cccc(N3C(=O)CCC3=O)c2)no1 | > 4 mM (inactive)
O=C(O)CCC(=O)NCc1cccnc1 | > 4 mM (inactive)
CNC(=O)C(=O)Nc1ccc(F)cc1 | > 4 mM (inactive)
O=C(O)CC[N+](=O)[O-] | > 4 mM (inactive)
NC(=O)c1cc2c(n(-c3ccccc3)c1=O)CCCC2=O | > 4 mM (inactive)
O=C(O)c1cc(=O)c2cccc(O)c2[nH]1 | > 4 mM (inactive)
C/C(N)=C/C(=O)N1CCCCC1 | > 4 mM (inactive)
NC1=NC(=O)/C(=C\c2cccc(C(=O)O)c2)S1 | > 4 mM (inactive)
COc1cc(C(=S)N2CCCC2)cc(Cl)c1O | > 4 mM (inactive)
CC[C@H](CCC(C)[C@H]1CCC2C3CCC4C[C@@H](O)CC[C@]4(C)C3CC[C@@]21C)C(C)C (stereo partly specified) | > 4 mM (inactive)
COc1ncccc1N | > 4 mM (inactive)
COc1ccccc1-c1nc(-c2ccc(C)nc2OC)no1 | > 4 mM (inactive)
COc1ccc([C@@H]2CC(=O)c3c(O)cc(O[C@@H]4O[C@H](CO[C@H]5O[C@@H](C)[C@H](O)[C@@H](O)[C@H]5O)[C@@H](O)[C@H](O)[C@H]4O)cc3O2)cc1O | > 4 mM (inactive)
O=C(O)c1ccc(Nc2nncc(=O)[nH]2)cc1 | > 4 mM (inactive)
Nc1ccc2c(c1)CCCC2=O | > 4 mM (inactive)
Cc1onc(-c2ccccc2)c1C(=O)Nc1ccncc1 | > 4 mM (inactive)
NN1C(=O)/C(=C/c2ccc(O)c(O)c2)SC1=S | > 4 mM (inactive)
Cc1cc(=O)[nH]c(N2CCCCC2)n1 | > 4 mM (inactive)
CN1CCN(CC(=O)N2CCc3ccccc32)CC1 | > 4 mM (inactive)

SMILES | Kd
C=CC(C1=CC(=O)C(OC)=CC1=O)c1ccc(O)cc1 (stereo unspecified) | > 4 mM (inactive)
O=C(c1ccccc1F)N1CCN(c2ccccc2)CC1 | > 4 mM (inactive)
O=C(Nc1ccc2c(c1)OCCO2)c1ccncc1 | > 4 mM (inactive)
Cc1ccc(NC(=O)/C=C2\SC(=O)NC2=O)cc1 | > 4 mM (inactive)
COc1ccc(C(O)c2nccn2C)cc1 (stereo unspecified) | > 4 mM (inactive)
CC[C@@]1(O)C[C@H](O[C@H]2C[C@H](N(C)C)[C@H](O)[C@H](C)O2)c2c(cc3c(c2O)C(=O)c2c(O)cccc2C3=O)[C@H]1C(=O)OC | > 4 mM (inactive)
COCc1c(CN)cnc(C)c1N | > 4 mM (inactive)
CN(C)c1ccc(NC(=O)CC(C(=O)O)N(C)C)cc1 (stereo unspecified) | > 4 mM (inactive)
c1ccc(SCc2nc(-c3cccnc3)no2)cc1 | > 4 mM (inactive)
O=C1CC(C(=O)O)c2ccccc21 (stereo unspecified) | > 4 mM (inactive)
O=C1C2C3CCC(O3)C2C(=O)N1c1cccc(F)c1 (stereo unspecified) | > 4 mM (inactive)
O=C(O[C@@H]1Cc2c(O)cc(O)cc2O[C@@H]1c1ccc(O)c(O)c1)c1cc(O)c(O)c(O)c1 | > 4 mM (inactive)
S=c1[nH]cnc2sccc12 | > 4 mM (inactive)
COc1ccc(C2(C)CC(=O)NC2=O)cc1 (stereo unspecified) | > 4 mM (inactive)
C[C@H]1[C@H](C)CC[C@]2(CO)CC[C@]3(C)C(=CCC4[C@@]5(C)CC[C@H](O)C(C)(C)C5CC[C@]43C)[C@H]12 (stereo partly specified) | > 4 mM (inactive)
OCc1ccc2c(c1)OCCCO2 | > 4 mM (inactive)
NC(=O)C1CCN(S(=O)(=O)c2ccccc2)CC1 | > 4 mM (inactive)
N[C@@H](CCC(=O)N[C@@H](CS)C(=O)NCC(=O)O)C(=O)O | > 4 mM (inactive)
CCn1ccc(C(=O)Nc2nccs2)n1 | > 4 mM (inactive)
CSc1nnc2ccc(-c3cccnc3)nn12 | > 4 mM (inactive)
O=C(c1ccccc1)c1ccc(N2CCNCC2)cc1 | > 4 mM (inactive)
COc1ccc2nc(N)sc2n1 | > 4 mM (inactive)
COc1ccc2cnn(-c3ccccc3)c(=O)c2c1OC | > 4 mM (inactive)
Nc1ccc(-c2cnco2)cc1 | > 4 mM (inactive)

SMILES | Kd
OCc1csc(-c2cccs2)n1 | > 4 mM (inactive)
OC[C@H]1O[C@@H](Oc2ccc(O)cc2)[C@H](O)[C@@H](O)[C@@H]1O | > 4 mM (inactive)
C=Cc1c(C)c2cc3[nH]c(cc4nc(cc5nc(cc1[nH]2)C(C)=C5CCC(=O)O)C(CCC(=O)O)=C4C)c(C)c3C=C | > 4 mM (inactive)
COc1ccc2c(c1)c1n[nH]c(=S)nc1n2C | > 4 mM (inactive)
CCN1CCc2c(sc(N)c2C(N)=O)C1 | > 4 mM (inactive)
COc1cc(C)c(Cl)cc1S(=O)(=O)N(C)C | > 4 mM (inactive)
CCOC(=O)c1c(C)nc2ncccn12 | > 4 mM (inactive)
NC(=O)Cn1cnc(-c2ccc(F)cc2)c1 | > 4 mM (inactive)
CCOC(=O)CNc1ncnc2c1nnn2CC | > 4 mM (inactive)
Cc1nc(SCC#N)c2c(C)c(C)sc2n1 | > 4 mM (inactive)
NC1CCN(Cc2ccccc2)CC1 | > 4 mM (inactive)
CC(=O)O[C@@H]1CC2C(C)(C)[C@H](O)CC[C@]2(C)C2CC[C@@]3(C)[C@H](c4ccoc4)OC(=O)C4OC43[C@@]21C (stereo partly specified) | > 4 mM (inactive)
O=C(O)C1Cc2ccccc2O1 (stereo unspecified) | > 4 mM (inactive)
O=C(Nn1cnnc1)c1ccccc1Cl | > 4 mM (inactive)
O=C(O)c1ccc(-n2cccc2)cc1 | > 4 mM (inactive)
COC(=O)/C(C)=C\CC12OC(C)(C)C3CC(C=C4C(=O)c5c(OC)c6c(c(CC=C(C)C)c5OC431)OC(C)(CCC=C(C)C)C=C6)C2=O (stereo unspecified) | > 4 mM (inactive)
O=C(O)c1ccc2ccccc2n1 | > 4 mM (inactive)
CCc1ccc(C(=O)N2CCCC2)s1 | > 4 mM (inactive)
O=CN1CCN(C(=O)c2ccco2)CC1 | > 4 mM (inactive)
C=CCSc1[nH]c(=O)cc(C)c1C(N)=O | > 4 mM (inactive)
O=C(Nc1cccnc1)c1cccs1 | > 4 mM (inactive)
O=C(Nc1nnc(-c2ccco2)o1)C1=COCCO1 | > 4 mM (inactive)
Cn1cnc2c(=S)[nH]c(=O)n(Cc3ccccc3)c21 | > 4 mM (inactive)
CN(C)S(=O)(=O)c1ccc(NC=O)cc1 | > 4 mM (inactive)

SMILES | Kd
O=C(c1ccco1)N1C(=O)c2cccc3cccc1c23 | > 4 mM (inactive)
CC1(C)CN=C(Nc2nc3ccccc3s2)S1 | > 4 mM (inactive)
Fc1cccc(Cl)c1CN1CCNCC1 | > 4 mM (inactive)
O=C(c1ccc(Cl)c(F)c1F)N1CCCC1 | > 4 mM (inactive)
CC(C)C(C)/C=C/C(C)C1CCC2C3=CC=C4CC(O)CCC4(C)C3CCC21C (stereo unspecified) | > 4 mM (inactive)
COc1cc(CNC(=O)CCCC/C=C/C(C)C)ccc1O | > 4 mM (inactive)
O=C(CC1Nc2ccccc2NC1=O)Nc1ccc(O)cc1 (stereo unspecified) | > 4 mM (inactive)
CC(=O)Nc1c(Cl)cnn(-c2ccccc2)c1=O | > 4 mM (inactive)
Cn1c(SCc2ccon2)nc2ccccc2c1=O | > 4 mM (inactive)
OCC12COC3c4ccccc4C(OC1)N32 (stereo unspecified) | > 4 mM (inactive)
COc1ccc2c(c1)[nH]c1c(C)nccc12 | > 4 mM (inactive)
CC(=O)O[C@@H]1CC2C(C)(C)[C@H](O)C=C[C@]2(C)C2CC[C@]3(C)C(=CC(=O)O[C@H]3c3ccoc3)[C@@]21C (stereo partly specified) | > 4 mM (inactive)
OCC(O)Cc1ccc2c(c1)OCO2 (stereo unspecified) | > 4 mM (inactive)
OCc1ccc(OC(F)(F)F)cc1 | > 4 mM (inactive)
C=C[C@H]1CN2CC[C@H]1C[C@H]2[C@H](O)c1ccnc2ccccc12 | > 4 mM (inactive)
CCOC(=O)C(C)c1n[nH]c(=O)c2ccccc12 (stereo unspecified) | > 4 mM (inactive)
CCOC(=O)c1cc(C)[nH]n1 | > 4 mM (inactive)
Cn1cccc1C(=O)NS(=O)(=O)c1ccccc1Cl | > 4 mM (inactive)
Cn1nnc2cc(C(=O)NC3CCCCC3)ccc21 | > 4 mM (inactive)
Nc1cc(=O)[nH]c(=O)n1-c1ccccc1 | > 4 mM (inactive)
